Test results reported in patent US20220079966A1, “HYALURONAN SYNTHESIS INHIBITION FOR TREATING AUTOIMMUNE, INFLAMMATORY, FIBROTIC, OR PROLIFERATIVE DISEASES OR DISORDERS” (The Board of Trustees of the Leland Stanford Junior …, priority 2018, published 2022).

Legend:
[1] = system: Foxp3+ regulatory T-cells; assay: Splenocyte regulatory T-cell analysis in wild type mice treated i.p. for 14 days; type: in vivo; details: 4-MU 0.5 mg i.p. or 4-MUG 1 mg i.p. daily for 14 days; for Foxp3+ amongst CD3+/CD4+ cells in splenocytes: flow cytometry
Protocol: The 4-MU (Alfa Aesar) was pressed into mouse chow (TestDiet, St. Louis, Mo.) and irradiated before shipment, as previously described (Nagy N., et al., Circulation. 2010; 122(22):2313-2322). This chow formulation delivers 250 mg/mouse/day, yielding a serum drug concentration of 640.3±17.2 nmol/L in mice, as measured by HPLC-MS. 4-MUG (ChemImpex, Wood Dale, Ill.) was distributed in the drinking water at a concentration of 2 mg/ml, delivering 10 mg/mouse/day, yielding a serum drug concentration of 357.1±72.6 ng/mL in mice, as measured by LC-MS/MS. Mice were initiated on 4-MU and 4-MUG at five, eight or twelve weeks of age, unless otherwise noted, and were maintained on this diet until they were euthanized, unless otherwise noted. For analysis of Foxp3+ regulatory T-cell numbers in naïve mice, mice were treated daily with 0.5 mg of 4-MU or 1.0 mg 4-MUG in 200 μl 0.08% carboxymethylcellulose in saline by intra-peritoneal injection.
Spleens were extracted from mice and cells were harvested by homogenization through a 70 μm cell strainer. Red blood cells were lysed using ACK buffer, after which the splenocyte suspensions were stained according to the protocol described above with the following fluorochrome-conjugated antibodies. V500-CD3 (500A2), BV785-CD4 (RM4-5) and A1488-Foxp3 (FJK-16s). Flow cytometry was performed on an LSRII and data analysis was done using FlowJo (Treestar).

DORmO mice = assay: DORmO mouse model of type 1 diabetes; type: in vivo; details: for HA accumulation in DORmO pancreatic islets (HA staining): 12 weeks of age, compared to untreated DORmO mice; for onset / progression of T1D as measured by blood glucose over time: fed from 5 weeks of age for 15 weeks
Description: 10×RIPmOVA (DORmO) mouse. DORmO mice carry a T-cell receptor transgene specific for OVA (emulating autoreactive CD4+ T-cells), while simultaneously expressing OVA in conjunction with the insulin gene promoter on pancreatic beta cells (emulating the autoantigen). All animals were bred and maintained under specific pathogen-free conditions, with free access to food and water, in the animal facilities at Stanford University Medical School (Stanford, Calif.). B6 db/db LeptR-/- mice were purchased from Jackson Laboratories (JAX) as well as DO11.10 transgenic mice. The DO11.10 mice were bred with Balb/c mice expressing RIPmOva (ovalbumin peptide amino acids 323-339; available at the Benaroya Research Institute) to generate the DORmO double-transgenic mice. In addition, C57Bl/6J mice were bred in-house at Stanford University School of Medicine. Beginning at four weeks of age, mice were weighed weekly as well as bled via the tail vein for the determination of their blood glucose level using a Contour® blood glucose meter and blood glucose monitoring strips (Bayer Healthcare). When two consecutive blood glucose readings of 250 mg/dL were recorded, animals were considered diabetic. When two consecutive blood glucose readings of 300 mg/dL were recorded, animals were euthanized. The 4-MU (Alfa Aesar) was pressed into mouse chow (TestDiet, St. Louis, Mo.) and irradiated before shipment, as previously described (Nagy N., et al., Circulation. 2010; 122(22):2313-2322). This chow formulation delivers 250 mg/mouse/day, yielding a serum drug concentration of 640.3±17.2 nmol/L in mice, as measured by HPLC-MS. 4-MUG ([…], Wood Dale, Ill.) was distributed in the drinking water at a concentration of 2 mg/ml, delivering 10 mg/mouse/day, yielding a serum drug concentration of 357.1±72.6 ng/mL in mice, as measured by LC-MS/MS. Mice were initiated on 4-MU and 4-MUG at five, eight or twelve weeks of age, unless otherwise noted, and were maintained on this diet until they were euthanized, unless otherwise noted. For analysis of Foxp3+ regulatory T-cell numbers in naïve mice, mice were treated daily with 0.5 mg of 4-MU or 1.0 mg 4-MUG in 200 μl 0.08% carboxymethylcellulose in saline by intra-peritoneal injection. Tissues for histochemistry were extracted from the animals and immediately transferred into 10% neutral buffered formalin (NBF). The tissue was processed to paraffin on a Leica ASP300 Tissue Processor (Leica Microsystems Inc.). Then 5 μm thick sections were cut on a Leica RM 2255 Microtomes (Leica Microsystems Inc.). All staining steps were performed on a Leica Bond-MaxTM automated immune histochemistry (IHC) stainer (Leica Microsystems Inc.). For HA affinity histochemistry (AFC) the BondTM Intense R Detection kit, a streptavidin-HRP system, (Leica Microsystems, Inc.) was used with 4 μg/mL biotinylated-HABP in 0.1% BSA-PBS as the primary. The BondTM Polymer Detection Kit was used for all other immunohistochemistry. This detection kit contains a goat anti-rabbit conjugated to polymeric HRP and a rabbit anti-mouse post primary reagent for use with mouse primaries. For Foxp3 and insulin (anti-insulin, ab7842 abcam) sections were incubated 60 min with 8 μg/mL rat anti-Foxp3 clone FJK-16s (eBioscience). Incubation with rabbit anti rat IgG (Vector Labs), post-primary was added in lieu of the post-primary reagent from the kit.

Structure (SMILES)	CD4+ and CD3+ T-cell numbers in splenocytes [1]	Foxp3+ MFI amongst CD3+/CD4+ cells in splenocytes [1]	Foxp3+ amongst CD3+/CD4+ cells in splenocytes [1]	HA accumulation in DORmO pancreatic islets (HA staining) (DORmO mice)	onset / progression of T1D as measured by blood glucose over time (DORmO mice)	insulin positive cells in pancreatic islets (DORmO mice; DORmO mice)	Foxp3 regulatory T-cells in pancreatic islets (FoxP3 staining) (DORmO mice; non-diabetic treated DORmO mice)
Cc1cc(=O)oc2cc(O[C@@H]3O[C@H](C(=O)O)[C@@H](O)[C@H](O)[C@H]3O)ccc12 [4-MUG, 4-methylumbelliferone-glucuronide]	not affected	increase in their expression of Foxp3	increase of Foxp3+ regulatory T-cells	decrease of HA accumulation	delayed the onset of T1D		
Cc1cc(=O)oc2cc(O)ccc12 [4-MU, 4-methylumbelliferone]	not affected	increase in their expression of Foxp3	increase of Foxp3+ regulatory T-cells	decrease of HA accumulation	sufficient to stop diabetes progression	insulin positive cells were preserved	increase of Foxp3 regulatory T-cells
